The text below walks through data of patent US20260193264A1, “BENZOYPARAZINE PYRAZINES AND THEIR USES” (FOGHORN THERAPEUTICS INC., priority 2022, published 2026).

Experiment [1] addresses T1, HiBiT-BRM fusion protein in stable HeLa cell line (Homo sapiens, UniProt P51531).
T1 construct: expressed in transfected cells
Description: HiBiT-BRM cell-based degradation assay (Nano-Glo HiBiT Lytic Detection, 24 h). The settings on record: HeLa HiBiT-BRM cells; for BRM HiBit Degradation Maximum (%): top dose 30 μM; for DC50: read-out: BRM HiBit Degradation IC50. On the set-up: DC50: scale not given here. A digest of the protocol:
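Percent degradation was scaled between DMSO-treated cells and cells given 2 μM of a known BRM/BRG1 degrader. Readout was NanoBiT luminescence after lytic detection. HeLa cells stably expressing HiBiT-BRM were dosed for 24 h, 10 points, 3-fold steps from 30 μM final, in duplicate.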

Experiment [2] concerns the target T2, HiBit-BRG1 fusion protein in stable HeLa cell line expressing HiBit-BRG1 and LgBit (Homo sapiens, UniProt P51532).
T2 construct: expressed in transfected cells
The experiment is described as follows: HiBiT-BRG1 cell-based degradation assay (Nano-Glo HiBiT, 24 h). The following applies: HeLa HiBit-BRG1/LgBit cells; for DC50: read-out: BRMG1 HiBit Degradation IC50; for Dmax: top dose 30 μM, read-out: BRG1 HiBit Degradation Maximum (%). A digest of the protocol: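 Degradation calculated from NanoBiT luminescence relative to DMSO-treated cells (high) and cells given 2 μM known BRM/BRG1 degrader (low). HeLa cells stably expressing HiBiT-BRG1 plus LgBiT were exposed to compound for 24 h before lytic HiBiT detection.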

T1 sequence (P51531 whole entry, the tested form may be a part): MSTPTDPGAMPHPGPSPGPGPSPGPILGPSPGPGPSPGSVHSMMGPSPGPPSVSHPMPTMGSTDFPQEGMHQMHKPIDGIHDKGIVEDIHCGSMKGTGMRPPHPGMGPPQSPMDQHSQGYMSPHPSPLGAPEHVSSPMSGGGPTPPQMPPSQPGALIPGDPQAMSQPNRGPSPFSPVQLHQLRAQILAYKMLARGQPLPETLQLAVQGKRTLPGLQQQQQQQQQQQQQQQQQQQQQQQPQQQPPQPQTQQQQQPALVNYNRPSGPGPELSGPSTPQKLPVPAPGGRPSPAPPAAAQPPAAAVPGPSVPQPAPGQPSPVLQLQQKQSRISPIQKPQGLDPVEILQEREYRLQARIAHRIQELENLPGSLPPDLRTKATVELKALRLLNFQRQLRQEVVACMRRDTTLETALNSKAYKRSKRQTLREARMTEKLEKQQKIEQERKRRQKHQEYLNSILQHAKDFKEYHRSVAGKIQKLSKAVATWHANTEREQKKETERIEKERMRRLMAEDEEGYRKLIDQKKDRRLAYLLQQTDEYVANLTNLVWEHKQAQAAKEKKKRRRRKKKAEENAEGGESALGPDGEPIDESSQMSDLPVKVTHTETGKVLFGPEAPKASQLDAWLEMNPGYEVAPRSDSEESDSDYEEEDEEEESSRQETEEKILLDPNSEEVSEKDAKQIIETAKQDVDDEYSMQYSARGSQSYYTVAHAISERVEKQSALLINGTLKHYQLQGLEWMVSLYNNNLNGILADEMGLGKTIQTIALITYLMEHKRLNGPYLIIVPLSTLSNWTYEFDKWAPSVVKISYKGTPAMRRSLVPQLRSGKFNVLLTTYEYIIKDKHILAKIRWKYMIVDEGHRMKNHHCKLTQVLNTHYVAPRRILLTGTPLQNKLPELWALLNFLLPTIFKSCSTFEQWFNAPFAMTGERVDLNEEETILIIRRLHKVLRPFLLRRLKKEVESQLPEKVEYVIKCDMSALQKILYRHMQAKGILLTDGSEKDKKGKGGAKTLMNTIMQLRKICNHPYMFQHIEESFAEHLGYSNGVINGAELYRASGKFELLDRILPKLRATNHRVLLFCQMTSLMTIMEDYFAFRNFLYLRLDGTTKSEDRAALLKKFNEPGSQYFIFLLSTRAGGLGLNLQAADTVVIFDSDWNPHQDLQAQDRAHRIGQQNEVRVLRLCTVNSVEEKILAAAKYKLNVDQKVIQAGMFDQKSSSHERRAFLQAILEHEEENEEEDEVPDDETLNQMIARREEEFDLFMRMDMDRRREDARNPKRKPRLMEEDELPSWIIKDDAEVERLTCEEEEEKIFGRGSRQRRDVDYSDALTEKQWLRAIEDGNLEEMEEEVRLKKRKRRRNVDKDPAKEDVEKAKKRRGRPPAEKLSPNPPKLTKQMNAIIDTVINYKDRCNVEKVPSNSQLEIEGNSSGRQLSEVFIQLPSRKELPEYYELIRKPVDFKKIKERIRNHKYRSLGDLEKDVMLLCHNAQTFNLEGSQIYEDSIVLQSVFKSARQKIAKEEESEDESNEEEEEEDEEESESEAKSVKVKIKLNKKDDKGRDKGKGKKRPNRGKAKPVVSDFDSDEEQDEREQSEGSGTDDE
T2 sequence (P51532 whole entry, the tested form may be a part): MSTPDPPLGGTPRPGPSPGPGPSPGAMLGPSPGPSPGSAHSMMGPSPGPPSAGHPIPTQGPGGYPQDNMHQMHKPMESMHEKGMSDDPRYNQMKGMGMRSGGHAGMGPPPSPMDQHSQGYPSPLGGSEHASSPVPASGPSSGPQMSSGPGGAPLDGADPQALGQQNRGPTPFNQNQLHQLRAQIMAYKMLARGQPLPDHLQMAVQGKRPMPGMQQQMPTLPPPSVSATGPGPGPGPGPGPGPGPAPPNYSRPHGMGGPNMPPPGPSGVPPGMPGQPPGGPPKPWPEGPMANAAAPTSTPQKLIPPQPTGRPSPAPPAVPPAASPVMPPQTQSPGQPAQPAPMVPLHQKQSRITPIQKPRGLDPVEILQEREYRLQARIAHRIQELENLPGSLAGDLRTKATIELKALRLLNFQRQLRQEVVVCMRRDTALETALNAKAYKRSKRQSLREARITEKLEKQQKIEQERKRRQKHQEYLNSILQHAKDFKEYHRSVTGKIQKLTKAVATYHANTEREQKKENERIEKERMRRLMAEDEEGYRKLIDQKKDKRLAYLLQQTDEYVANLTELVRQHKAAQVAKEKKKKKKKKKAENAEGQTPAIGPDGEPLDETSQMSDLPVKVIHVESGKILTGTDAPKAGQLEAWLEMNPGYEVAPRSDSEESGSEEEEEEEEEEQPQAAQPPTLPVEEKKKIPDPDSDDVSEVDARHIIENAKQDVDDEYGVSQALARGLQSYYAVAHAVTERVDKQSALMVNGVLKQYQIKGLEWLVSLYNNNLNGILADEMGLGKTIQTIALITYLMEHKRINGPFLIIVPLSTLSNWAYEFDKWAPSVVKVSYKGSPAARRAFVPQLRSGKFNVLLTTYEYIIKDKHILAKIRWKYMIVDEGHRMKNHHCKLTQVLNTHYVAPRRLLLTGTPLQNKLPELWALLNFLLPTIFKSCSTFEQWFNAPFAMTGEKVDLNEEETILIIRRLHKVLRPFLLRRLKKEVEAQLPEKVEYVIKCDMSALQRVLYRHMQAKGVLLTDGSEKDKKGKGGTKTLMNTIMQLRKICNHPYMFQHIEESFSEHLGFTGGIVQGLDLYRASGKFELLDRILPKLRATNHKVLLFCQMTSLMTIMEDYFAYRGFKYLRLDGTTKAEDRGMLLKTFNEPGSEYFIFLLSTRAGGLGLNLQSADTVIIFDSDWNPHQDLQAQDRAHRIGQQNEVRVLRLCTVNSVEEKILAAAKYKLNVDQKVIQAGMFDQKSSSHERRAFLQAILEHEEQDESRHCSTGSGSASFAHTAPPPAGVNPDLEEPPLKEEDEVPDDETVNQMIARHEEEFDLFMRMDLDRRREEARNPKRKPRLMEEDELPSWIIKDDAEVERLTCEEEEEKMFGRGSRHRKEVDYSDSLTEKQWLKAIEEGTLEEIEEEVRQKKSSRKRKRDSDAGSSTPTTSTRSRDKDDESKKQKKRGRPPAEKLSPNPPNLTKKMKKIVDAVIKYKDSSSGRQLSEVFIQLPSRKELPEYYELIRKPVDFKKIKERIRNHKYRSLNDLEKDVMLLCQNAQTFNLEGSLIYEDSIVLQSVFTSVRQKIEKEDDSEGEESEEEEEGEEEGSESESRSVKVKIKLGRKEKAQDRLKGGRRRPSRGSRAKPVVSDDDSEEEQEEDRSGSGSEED

In the case of `Cc1ncsc1-c1ccc([C@H](C)NC(=O)[C@@H]2C[C@@H](O)CN2C(=O)C(C(C)C)n2cc(N3CCC34CN(c3ccc5nnc(-c6ccccc6O)cc5c3)C4)nn2)cc1` (stereo partly shown) [Compound 276], the “BRM HiBit Degradation Maximum (%)” value in experiment [1] is given as “C (“C” indicates maximum degradation <50%)”. For the same molecule, in experiment [2], the DC50 was > 10 nM and the Dmax was > 75%.

On to `Cc1ncsc1-c1ccc([C@H](C)NC(=O)[C@@H]2C[C@@H](O)CN2C(=O)[C@H](c2cc(-c3cnc(N4CCN(c5ccc6nnc(-c7ccccc7O)cc6c5)CC4)nc3)no2)C(C)C)cc1` [Compound 14, (2S,4R)-4-hydroxy-1-((S)-2-(3-(2-(4-(3-(2-hydroxyphenyl)cinnolin-6-yl)piperazin-1-yl)pyrimidin-5-yl)isoxazol-5-yl)-3-methylbutanoyl)-N—((S)-1-(4-(4-methylthiazol-5-yl)phenyl)ethyl)pyrrolidine-2-carboxamide], for which, in experiment [1], the DC50 is > 10 nM and the “BRM HiBit Degradation Maximum (%)” value was “A (“A” indicates maximum degradation ≥75%)”. In addition, in experiment [2], the DC50 was > 100 nM and the Dmax was > 75%.

Regarding `Cc1ncsc1-c1ccc([C@H](C)NC(=O)[C@@H]2C[C@@H](O)CN2C(=O)[C@@H](c2cc(N3CC4(CN(c5ccc6cc(-c7ccccc7O)nnc6c5)C4)C3)n(C)n2)C(C)C)cc1` (single isomer, unassigned) [Compound 194], in experiment [1], the DC50 is > 100 nM and the “BRM HiBit Degradation Maximum (%)” value was “A (“A” indicates maximum degradation ≥75%)”. The Dmax in experiment [2] was < 50%.

On to `Cc1ncsc1-c1ccc([C@H](C)NC(=O)[C@@H]2C[C@@H](O)CN2C(=O)C(C(C)C)n2cc(N3C4CCC3CN(c3ccc5nnc(-c6ccccc6O)cc5c3)C4)nn2)cc1` (stereo partly shown) [Compound 285], for which, in experiment [1], the DC50 was < 10 nM and the “BRM HiBit Degradation Maximum (%)” value is given as “A (“A” indicates maximum degradation ≥75%)”. Also, in experiment [2], the DC50 was > 10 nM and the Dmax is > 75%.

As for `Cc1ncsc1-c1ccc([C@H](C)NC(=O)[C@@H]2C[C@@H](O)CN2C(=O)C(C(C)C)n2cc(N3CCC4(CCN4c4ccc5nnc(-c6ccccc6O)cc5c4)C3)nn2)cc1` (stereo partly shown) [Compound 277], in experiment [1], the DC50 was < 10 nM and the “BRM HiBit Degradation Maximum (%)” value is “A (“A” indicates maximum degradation ≥75%)”. Further, the Dmax in experiment [2] is < 50%.

With `Cc1ncsc1-c1ccc([C@H](C)NC(=O)[C@@H]2C[C@@H](O)CN2C(=O)[C@@H](c2cc(N3CCOC4(CN(c5ccc6nnc(-c7ccccc7O)cc6c5)C4)C3)no2)C(C)C)cc1` [Compound 146, (2S,4R)-4-hydroxy-1-((R)-2-(3-(2-(3-(2-hydroxyphenyl)cinnolin-6-yl)-5-oxa-2,8-diazaspiro[3.5]nonan-8-yl)isoxazol-5-yl)-3-methylbutanoyl)-N-((S)-1-(4-(4-methylthiazol-5-yl)phenyl)ethyl)pyrrolidine-2-carboxamide], in experiment [1], the DC50 is < 10 nM and the “BRM HiBit Degradation Maximum (%)” value is listed as “A (“A” indicates maximum degradation ≥75%)”. Moreover, in experiment [2], the DC50 is > 10 nM and the Dmax is > 75%.

For the molecule `Cc1ncsc1-c1ccc([C@H](C)NC(=O)[C@@H]2C[C@@H](O)CN2C(=O)[C@@H](c2cc(N3CCN([C@H]4CCN(Cc5ccc6nnc(-c7ccccc7O)cc6c5)CC4(F)F)CC3)no2)C(C)C)cc1` [Compound 137, (2S,4R)-1-((R)-2-(3-(4-((S)-3,3-difluoro-1-((3-(2-hydroxyphenyl)cinnolin-6-yl)methyl)piperidin-4-yl)piperazin-1-yl)isoxazol-5-yl)-3-methylbutanoyl)-4-hydroxy-N-((S)-1-(4-(4-methylthiazol-5-yl)phenyl)ethyl)pyrrolidine-2-carboxamide], in experiment [1], the DC50 was < 10 nM and the “BRM HiBit Degradation Maximum (%)” value was “A (“A” indicates maximum degradation ≥75%)”. Moreover, in experiment [2], the DC50 is < 10 nM and the Dmax was > 75%.

As for `Cc1ncsc1-c1ccc([C@H](C)NC(=O)[C@@H]2C[C@@H](O)CN2C(=O)[C@@H](c2cc(N3CCC4(CC3)CCN(c3ccc5cc(-c6ccccc6O)nnc5c3)C4=O)no2)C(C)C)cc1` [Compound 104, (2S,4R)-4-hydroxy-1-((R)-2-(3-(2-(3-(2-hydroxyphenyl)cinnolin-7-yl)-1-oxo-2,8-diazaspiro[4.5]decan-8-yl)isoxazol-5-yl)-3-methylbutanoyl)-N-((S)-1-(4-(4-methylthiazol-5-yl)phenyl)ethyl)pyrrolidine-2-carboxamide], in experiment [1], the DC50 is < 10 nM and the “BRM HiBit Degradation Maximum (%)” value is recorded as “A (“A” indicates maximum degradation ≥75%)”. Further, in experiment [2], the Dmax is < 50%.

For the molecule `C#Cc1ccc(CNC(=O)[C@@H]2C[C@@H](O)CN2C(=O)[C@H](C(C)C)n2cc(N3CC4(CN(c5ccc6cc(-c7ccccc7O)nnc6c5)C4)C3)nn2)c(Cl)c1` [Compound 223, (2S,4R)—N-[(2-chloro-4-ethynylphenyl)methyl]-4-hydroxy-1-[(2S)-2-(4-{6-[3-(2-hydroxyphenyl)cinnolin-7-yl]-2,6-diazaspiro[3.3]heptan-2-yl}-1,2,3-triazol-1-yl)-3-methylbutanoyl]pyrrolidine-2-carboxamide], in experiment [1], the DC50 was < 10 nM and the “BRM HiBit Degradation Maximum (%)” value was “A (“A” indicates maximum degradation ≥75%)”. Moreover, the Dmax in experiment [2] is > 50%.

As to `Cc1ncsc1-c1ccc([C@H](C)NC(=O)[C@@H]2C[C@@H](O)CN2C(=O)[C@@H](c2cc(N3CCC4(CC3)CC(c3ccc5cc(-c6cccc(F)c6O)nnc5c3)C4)no2)C(C)C)cc1` [Compound 94, (2S,4R)-1-((R)-2-(3-(2-(3-(3-fluoro-2-hydroxyphenyl)cinnolin-7-yl)-7-azaspiro[3.5]nonan-7-yl)isoxazol-5-yl)-3-methylbutanoyl)-4-hydroxy-N-((S)-1-(4-(4-methylthiazol-5-yl)phenyl)ethyl)pyrrolidine-2-carboxamide], in experiment [1], the DC50 was < 10 nM and the “BRM HiBit Degradation Maximum (%)” value was “A (“A” indicates maximum degradation ≥75%)”. The Dmax in experiment [2] was < 50%.

As to `Cc1ncsc1-c1ccc([C@H](C)NC(=O)[C@@H]2C[C@@H](O)CN2C(=O)[C@H](c2cc(-c3cnc(N4CCC(c5ccc6nnc(-c7ccccc7O)cc6c5)CC4)nc3)no2)C(C)C)cc1` [Compound 41], in experiment [1], the “BRM HiBit Degradation Maximum (%)” value is given as “C (“C” indicates maximum degradation <50%)”. Further, the Dmax in experiment [2] is < 50%.

On to `Cc1ncsc1-c1ccc([C@H](C)NC(=O)[C@@H]2C[C@@H](O)CN2C(=O)[C@@H](c2cc(N3CCC(N4CC5(CN(Cc6ccc7nnc(-c8ccccc8O)cc7c6)C5)C4)CC3)no2)C(C)C)cc1` [Compound 256, (2S,4R)-4-hydroxy-1-((R)-2-(3-(4-(6-((3-(2-hydroxyphenyl)cinnolin-6-yl)methyl)-2,6-diazaspiro [3.3]heptan-2-yl)piperidin-1-yl)isoxazol-5-yl)-3-methylbutanoyl)-N-((S)-1-(4-(4-methylthiazol-5-yl)phenyl)ethyl)pyrrolidine-2-carboxamide], for which, in experiment [1], the DC50 is > 100 nM and the “BRM HiBit Degradation Maximum (%)” value is recorded as “B (“B” indicates maximum degradation ≥50%)”. Also, in experiment [2], the DC50 is > 10 nM and the Dmax is > 75%.

For `Cc1ncsc1-c1ccc([C@H](C)NC(=O)[C@@H]2C[C@@H](O)CN2C(=O)[C@H](C(C)C)n2cc(N3CC4(CN(c5ccc6cc(-c7ccccc7O)nnc6c5)C4)C3)nn2)cc1` [Compound 169, (2S,4R)-4-hydroxy-1-((S)-2-(4-(6-(3-(2-hydroxyphenyl)cinnolin-7-yl)-2,6-diazaspiro[3.3]heptan-2-yl)-1H-1,2,3-triazol-1-yl)-3-methylbutanoyl)-N-((S)-1-(4-(4-methylthiazol-5-yl)phenyl)ethyl)pyrrolidine-2-carboxamide], in experiment [1], the DC50 is < 10 nM and the “BRM HiBit Degradation Maximum (%)” value is on record as “A (“A” indicates maximum degradation ≥75%)”. Also, in experiment [2], the DC50 is < 10 nM and the Dmax was > 50%.

Turning to `Cc1ncsc1-c1ccc([C@H](C)NC(=O)[C@@H]2C[C@@H](O)CN2C(=O)[C@@H](c2cc(N3CCC4(CC3)CN(c3ccc5nnc(-c6ccccc6O)cc5c3)C4)no2)C(C)C)cc1` [Compound 67, (2S,4R)-4-hydroxy-1-((R)-2-(3-(2-(3-(2-hydroxyphenyl)cinnolin-6-yl)-2,7-diazaspiro[3.5]nonan-7-yl)isoxazol-5-yl)-3-methylbutanoyl)-N-((S)-1-(4-(4-methylthiazol-5-yl)phenyl)ethyl)pyrrolidine-2-carboxamide], in experiment [1], the DC50 is < 10 nM and the “BRM HiBit Degradation Maximum (%)” value is “A (“A” indicates maximum degradation ≥75%)”. In addition, in experiment [2], the DC50 is > 10 nM and the Dmax was > 75%.

Regarding `Cc1ncsc1-c1ccc([C@H](C)NC(=O)[C@@H]2C[C@@H](O)CN2C(=O)C(C(C)C)n2cc(N3CCN(CC4CCCN(c5ccc6cc(-c7ccccc7O)nnc6c5)C4)CC3)nn2)cc1` (stereo partly drawn) [Compound 260, (2S,4R)-4-hydroxy-1-(2-(4-(4-((1-(3-(2-hydroxyphenyl)cinnolin-7-yl)piperidin-3-yl)methyl)piperazin-1-yl)-1H-1,2,3-triazol-1-yl)-3-methylbutanoyl)-N-((S)-1-(4-(4-methylthiazol-5-yl)phenyl)ethyl)pyrrolidine-2-carboxamide], in experiment [1], the DC50 is > 10 nM and the “BRM HiBit Degradation Maximum (%)” value is “A (“A” indicates maximum degradation ≥75%)”. Moreover, in experiment [2], the DC50 is > 10 nM and the Dmax is > 75%.
